Experiments:
[1] = system: Leptinotarsa decemlineata; assay: Insecticidal activity against third-instar larval stage of Leptinotarsa decemlineata infested potato leaves assessed as mortality at 20 mg after 12 hr relative to control; assay type: functional
[2] = system: Leptinotarsa decemlineata; assay: Insecticidal activity against first-instar larval stage of Leptinotarsa decemlineata infested potato leaves assessed as mortality at 20 mg after 48 hr relative to control; assay type: functional
[3] = system: Leptinotarsa decemlineata; assay: Insecticidal activity against first-instar larval stage of Leptinotarsa decemlineata infested potato leaves assessed as mortality at 20 mg after 12 hr relative to control; assay type: functional
[4] = system: Leptinotarsa decemlineata; assay: Insecticidal activity against third-instar larval stage of Leptinotarsa decemlineata infested potato leaves assessed as mortality at 10 mg after 12 hr relative to control; assay type: functional
[5] = system: Leptinotarsa decemlineata; assay type: functional, Instar larval stage
[6] = system: Leptinotarsa decemlineata; assay: Insecticidal activity against adult Leptinotarsa decemlineata infested potato leaves assessed as mortality at 20 mg after 96 hr relative to control; assay type: functional
[7] = system: Leptinotarsa decemlineata; assay: Insecticidal activity against adult Leptinotarsa decemlineata infested potato leaves assessed as mortality at 20 mg after 48 hr relative to control; assay type: functional
[8] = system: Leptinotarsa decemlineata; assay type: functional, Instar larval stage; remark: listed apart in the source
[9] = system: Leptinotarsa decemlineata; assay: Insecticidal activity against first-instar larval stage of Leptinotarsa decemlineata infested potato leaves assessed as mortality at 20 mg after 24 hr relative to control; assay type: functional
[10] = system: Leptinotarsa decemlineata; assay: Insecticidal activity against adult Leptinotarsa decemlineata infested potato leaves assessed as mortality at 10 mg after 48 hr relative to control; assay type: functional
[11] = system: Leptinotarsa decemlineata; assay: Insecticidal activity against first-instar larval stage of Leptinotarsa decemlineata infested potato leaves assessed as mortality at 10 mg after 12 hr relative to control; assay type: functional
[12] = system: Leptinotarsa decemlineata; assay: Insecticidal activity against adult Leptinotarsa decemlineata infested potato leaves assessed as mortality at 10 mg after 12 hr relative to control; assay type: functional
[13] = system: Leptinotarsa decemlineata; assay type: functional, Instar larval stage; remark: listed apart in the source
[14] = system: Leptinotarsa decemlineata; assay type: functional, Instar larval stage; remark: listed apart in the source
[15] = system: Leptinotarsa decemlineata; assay type: functional, Instar larval stage; remark: listed apart in the source
[16] = system: Leptinotarsa decemlineata; assay: Insecticidal activity against adult Leptinotarsa decemlineata infested potato leaves assessed as mortality at 10 mg after 96 hr relative to control; assay type: functional
[17] = system: Leptinotarsa decemlineata; assay: Insecticidal activity against second-instar larval stage of Leptinotarsa decemlineata infested potato leaves assessed as mortality at 20 mg after 12 hr relative to control; assay type: functional
[18] = system: Leptinotarsa decemlineata; assay: Insecticidal activity against first-instar larval stage of Leptinotarsa decemlineata infested potato leaves assessed as mortality at 10 mg after 96 hr relative to control; assay type: functional
[19] = system: Leptinotarsa decemlineata; assay type: functional, Instar larval stage; remark: listed apart in the source
[20] = system: Leptinotarsa decemlineata; assay: Insecticidal activity against third-instar larval stage of Leptinotarsa decemlineata infested potato leaves assessed as mortality at 20 mg after 24 hr relative to control; assay type: functional
[21] = system: Leptinotarsa decemlineata; assay: Insecticidal activity against second-instar larval stage of Leptinotarsa decemlineata infested potato leaves assessed as mortality at 10 mg after 12 hr relative to control; assay type: functional
[22] = system: Leptinotarsa decemlineata; assay: Insecticidal activity against adult Leptinotarsa decemlineata infested potato leaves assessed as mortality at 20 mg after 12 hr relative to control; assay type: functional
[23] = system: Leptinotarsa decemlineata; assay: Insecticidal activity against adult Leptinotarsa decemlineata infested potato leaves assessed as mortality at 20 mg after 24 hr relative to control; assay type: functional
[24] = system: Leptinotarsa decemlineata; assay type: functional, Instar larval stage; remark: listed apart in the source
[25] = system: Leptinotarsa decemlineata; assay: Insecticidal activity against adult Leptinotarsa decemlineata infested potato leaves assessed as mortality at 10 mg after 24 hr relative to control; assay type: functional
[26] = system: Leptinotarsa decemlineata; assay: Insecticidal activity against first-instar larval stage of Leptinotarsa decemlineata infested potato leaves assessed as mortality at 10 mg after 48 hr relative to control; assay type: functional
[27] = system: Leptinotarsa decemlineata; assay: Insecticidal activity against first-instar larval stage of Leptinotarsa decemlineata infested potato leaves assessed as mortality at 10 mg after 24 hr relative to control; assay type: functional
[28] = system: Leptinotarsa decemlineata; assay type: functional, Instar larval stage; remark: listed apart in the source
[29] = system: Leptinotarsa decemlineata; assay type: functional, Instar larval stage; remark: listed apart in the source
[30] = system: Leptinotarsa decemlineata; assay type: functional, Instar larval stage; remark: listed apart in the source
[31] = system: Leptinotarsa decemlineata; assay: Insecticidal activity against third-instar larval stage of Leptinotarsa decemlineata infested potato leaves assessed as mortality at 10 mg after 24 hr relative to control; assay type: functional
[32] = system: Leptinotarsa decemlineata; assay: Insecticidal activity against first-instar larval stage of Leptinotarsa decemlineata infested potato leaves assessed as mortality at 20 mg after 96 hr relative to control; assay type: functional

Row | SMILES | mortality [1] [%] | mortality [2] [%] | mortality [3] [%] | mortality [4] [%] | mortality [5] [%] | mortality [6] [%] | mortality [7] [%] | mortality [8] [%] | mortality [9] [%] | mortality [10] [%] | mortality [11] [%] | mortality [12] [%] | mortality [13] [%] | mortality [14] [%] | mortality [15] [%] | mortality [16] [%] | mortality [17] [%] | mortality [18] [%] | mortality [19] [%] | mortality [20] [%] | further results
1 | CC12CCC(C1)C(C)(C)C2=O (stereo not given) [FENCHONE] | 66.7 | 100 | 36.7 | 56.7 | 100 | 100 | 100 | 73.3 | 83.3 | 100 | 13.3 | 53.3 | 100 | 100 | 100 | 100 | 33.3 | 83.3 | 100 | 100 | mortality [21]: 23.3%; mortality [22]: 90%; mortality [23]: 100%; mortality [24]: 63.3%; mortality [25]: 100%; mortality [26]: 63.3%; mortality [27]: 46.7%; mortality [28]: 100%; mortality [29]: 50%; mortality [30]: 100%; mortality [31]: 93.3%; mortality [32]: 100%
2 | CC1(C)C2CCC1(C)C(O)C2 (stereo not given) [BORNEOL] | 0 | 6.7 | 0 | 0 | 0 | 66.7 | 66.7 | 20 | 0 | 13.3 | 0 | 0 | 0 | 23.3 | 0 | 23.3 | 0 | 13.3 | 0 | 0 | mortality [21]: 0%; mortality [22]: 3.3%; mortality [23]: 20%; mortality [24]: 0%; mortality [25]: 0%; mortality [26]: 0%; mortality [27]: 0%; mortality [28]: 16.7%; mortality [29]: 0%; mortality [30]: 0%; mortality [31]: 0%; mortality [32]: 16.7%
3 | CC1=CC[C@@H](C(C)(C)O)CC1 [ALPHA-TERPINEOL] | 13.3 | 26.7 | 16.7 | 0 | 23.3 | 23.3 | 0 | 13.3 | 23.3 | 6.7 | 3.3 | 0 | 20 | 10 | 0 | 16.7 | 0 | 16.7 | 3.3 | 13.3 | mortality [21]: 0%; mortality [22]: 0%; mortality [23]: 0%; mortality [24]: 6.7%; mortality [25]: 0%; mortality [26]: 13.7%; mortality [27]: 6.7%; mortality [28]: 6.7%; mortality [29]: 6.7%; mortality [30]: 0%; mortality [31]: 0%; mortality [32]: 30%
4 | CC1CCC(C(C)C)C(O)C1 (stereo not given) [MENTHOL] | 26.7 | 30 | 0 | 20 | 40 | 33 | 13.3 | 46.7 | 16.7 | 16.7 | 0 | 3.3 | 40 | 40 | 26.7 | 30 | 0 | 36.7 | 20 | 33.3 | mortality [21]: 3.3%; mortality [22]: 0%; mortality [23]: 0%; mortality [24]: 26.7%; mortality [25]: 3.3%; mortality [26]: 16.7%; mortality [27]: 3.3%; mortality [28]: 33.3%; mortality [29]: 6.7%; mortality [30]: 23.3%; mortality [31]: 23.3%; mortality [32]: 36.7%
5 | CC12CCC(C1)C(C)(C)C2O (stereo not given) [FENCHYL ALCOHOL] | 6.7 | 3.3 | 3.3 | 10 | 23.3 | 20 | 6.7 | 13.3 | 3.3 | 16.7 | 3.3 | 3.3 | 20 | 3.3 | 30 | 43.3 | 3.3 | 13.3 | 3.3 | 10 | mortality [21]: 3.3%; mortality [22]: 0%; mortality [23]: 0%; mortality [24]: 13.3%; mortality [25]: 16.7%; mortality [26]: 13.3%; mortality [27]: 10%; mortality [28]: 3.3%; mortality [29]: 10%; mortality [30]: 30%; mortality [31]: 23.3%; mortality [32]: 3.3%

From ChEMBL document CHEMBL3046407, “Toxicity of monoterpenes against larvae and adults of Colorado potato beetle, Leptinotarsa decemlineata Say (Coleoptera: Chrysomelidae)” (2007)
